# Patent publication US9682967B2
# Target: hSortilin (Homo sapiens (Human), UniProt Q99523)
# Test: hSortilin affinity assay (displacement of 3H-neurotensin, SPA)
# Type: binding
# Details: for IC50: [3H]-Neurotensin 5 nM, 150 nM 6his-Sortilin, read-out: hSortilin NTS Binding IC50; for Ki: from IC50 by Cheng-Prusoff, Kd neurotensin 100 nM
# hSortilin, sequence (Q99523 34-755): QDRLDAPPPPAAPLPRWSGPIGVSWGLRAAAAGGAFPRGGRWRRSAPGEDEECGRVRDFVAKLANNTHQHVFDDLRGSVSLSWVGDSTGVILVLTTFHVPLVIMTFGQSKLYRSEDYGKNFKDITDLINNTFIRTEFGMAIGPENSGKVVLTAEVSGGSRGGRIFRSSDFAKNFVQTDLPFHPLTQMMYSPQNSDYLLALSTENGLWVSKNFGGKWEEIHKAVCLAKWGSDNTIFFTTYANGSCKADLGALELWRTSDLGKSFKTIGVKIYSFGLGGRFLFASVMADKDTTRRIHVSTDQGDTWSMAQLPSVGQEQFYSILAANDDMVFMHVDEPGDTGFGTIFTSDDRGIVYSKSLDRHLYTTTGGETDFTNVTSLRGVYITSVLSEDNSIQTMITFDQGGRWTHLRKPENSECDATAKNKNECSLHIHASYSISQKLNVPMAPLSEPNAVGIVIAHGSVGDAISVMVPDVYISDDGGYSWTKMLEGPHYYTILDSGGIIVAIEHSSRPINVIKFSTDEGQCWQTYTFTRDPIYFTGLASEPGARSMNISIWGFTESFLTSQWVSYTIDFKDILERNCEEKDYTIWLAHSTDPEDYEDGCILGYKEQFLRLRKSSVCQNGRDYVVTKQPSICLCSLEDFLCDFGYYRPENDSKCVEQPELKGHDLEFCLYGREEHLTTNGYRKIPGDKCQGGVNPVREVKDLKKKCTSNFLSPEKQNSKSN
SMILES,IC50 [nM],Ki [nM]
"Cc1cccc(NC(=O)c2ccc(Br)cc2C(=O)O)n1 [Example 2, 5-Bromo-N-(6-methyl-pyridin-2-yl)-phthalamic acid]",1200,1140
"Cc1cccc(NC(=O)c2ccc(Cl)cc2C(=O)O)n1 [Example 4, 5-Chloro-N-(6-methyl-pyridin-2-yl)-phthalamic acid]",1400,1330
"Cc1cccc(NC(=O)c2cc(Cl)c(Cl)cc2C(=O)O)n1 [Example 5, 4,5-Dichloro-N-(6-methyl-pyridin-2-yl)-phthalamic acid]",830,790
"Cc1ccc(NC(=O)c2ccc(C(F)(F)F)cc2C(=O)O)nc1C [Example 7, N-(5,6-Dimethyl-pyridin-2-yl)-5-trifluoromethyl-phthalamic acid]",170,162
"Cc1ccc(NC(=O)c2cc(Cl)c(Cl)cc2C(=O)O)nc1C [Example 11, 4,5-Dichloro-N-(5,6-Dimethyl-pyridin-2-yl)-phthalamic acid]",480,457
"Cc1cc(NC(=O)c2cc(Cl)c(Cl)cc2C(=O)O)ccn1 [Example 12, 4,5-Dichloro-N-(2-methyl-pyridin-4-yl)-phthalamic acid]",1800,1710
"Cc1cccc(NC(=O)c2ccc(Cl)c(F)c2C(=O)O)n1 [Example 14, 5-Chloro-6-fluoro-N-(6-methyl-pyridin-2-yl)-phthalamic acid]",4200,4000
"Cc1cccc(NC(=O)c2cc(C)c(C)cc2C(=O)O)n1 [Example 15, 4,5-Dimethyl-N-(6-methyl-pyridin-2-yl)-phthalamic acid]",3400,3240
"Cc1ncc(NC(=O)c2ccc(C(F)(F)F)cc2C(=O)O)nc1C [Example 18, 2-((5,6-dimethylpyrazin-2-yl)carbamoyl)-5-(trifluoromethyl)benzoic acid]",240,229
"O=C(O)c1cc(Br)ccc1C(=O)Nc1ccccn1 [Example 21, 5-Bromo-N-pyridin-2-yl-phthalamic acid]",3600,3430
"Cc1cc(NC(=O)c2ccc(Br)cc2C(=O)O)ccn1 [Example 25, 5-Bromo-N-(2-methyl-pyridin-4-yl)-phthalamic acid]",1800,1710
O=C(O)c1cc(Br)ccc1C(=O)Nc1cccnc1 [Example 26],5500,5240
"Cc1csc(NC(=O)c2ccc(Br)cc2C(=O)O)n1 [Example 28, 5-Bromo-N-(4-methyl-thiazol-2-yl)-phthalamic acid]",3600,3430
"O=C(O)c1cc(Br)ccc1C(=O)Nc1ccc2ccccc2n1 [Example 29, 5-Bromo-N-quinolin-2-yl-phthalamic acid]",1300,1240
"O=C(O)c1cc(Br)ccc1C(=O)Nc1ccc(Cl)c(Cl)n1 [Example 30, 5-Bromo-N-(5,6-dichloro-pyridin-2-yl)-phthalamic acid]",2100,2000
"Cc1cc(C)nc(NC(=O)c2ccc(Br)cc2C(=O)O)c1 [Example 33, 5-Bromo-N-(4,6-dimethyl-pyridin-2-yl)-phthalamic acid]",970,924
"Cc1nccc(NC(=O)c2ccc(Br)cc2C(=O)O)n1 [Example 34, 5-Bromo-N-(2-methyl-pyrimidin-4-yl)-phthalamic acid]",490,467
"COc1cc(NC(=O)c2ccc(C(F)(F)F)cc2C(=O)O)ccn1 [Example 36, N-(2-Methoxy-pyridin-4-yl)-5-trifluoromethyl-phthalamic acid]",750,714
"O=C(O)c1cc(C(F)(F)F)ccc1C(=O)NCc1ccccn1 [Example 38, N-Pyridin-2-ylmethyl-5-trifluoromethyl-phthalamic acid]",1600,1520

# Further compounds by falling IC50, results first:
IC50 [nM],Ki [nM],SMILES
7500,7140,"O=C(O)c1cc(C(F)(F)F)ccc1C(=O)NCc1ccncc1 [Example 39, N-Pyridin-4-ylmethyl-5-trifluoromethyl-phthalamic acid]"
6400,6100,"Cc1ccc(C(=O)Nc2cccc(C)n2)c(C(=O)O)c1 [Example 3, 5-Methyl-N-(6-methyl-pyridin-2-yl)-phthalamic acid]"
4000,–,N#Cc1c(NC(=O)c2ccc(Br)cc2C(=O)O)sc2c1CCCC2 [Example 6]
3200,3050,"Cc1ccc(NC(=O)c2ccc(Br)cc2C(=O)O)nn1 [Example 32, 5-Bromo-N-(6-methyl-pyridazin-3-yl)-phthalamic acid]"
2400,2290,"Cc1ccnc(NC(=O)c2ccc(Br)cc2C(=O)O)c1 [Example 24, 5-Bromo-N-(4-methyl-pyridin-2-yl)-phthalamic acid]"
2200,2100,"Cc1ccnc(NC(=O)c2cc(Cl)c(Cl)cc2C(=O)O)c1 [Example 10, 4,5-Dichloro-N-(4-methyl-pyridin-2-yl)-phthalamic acid]"
2000,1900,"Cc1cc(NC(=O)c2ccc(Br)cc2C(=O)O)ncn1 [Example 35, 5-Bromo-N-(6-methyl-pyrimidin-4-yl)-phthalamic acid]"
1700,1620,"Cc1ccc(NC(=O)c2ccc(Br)cc2C(=O)O)nc1 [Example 19, 5-Bromo-N-(5-methyl-pyridin-2-yl)-phthalamic acid]"
1600,1520,"O=C(O)c1cc(Br)ccc1C(=O)Nc1cccc(Cl)n1 [Example 22, 5-Bromo-N-(6-chloro-pyridin-2-yl)-phthalamic acid]"
1300,1240,"COc1cccc(NC(=O)c2ccc(C(F)(F)F)cc2C(=O)O)n1 [Example 37, N-(6-Methoxy-pyridin-2-yl)-5-trifluoromethyl-phthalamic acid]"
1000,952,"Cc1ccnc(NC(=O)c2ccc(C(F)(F)F)cc2C(=O)O)c1 [Example 8, N-(4-methyl-pyridin-2-yl)-5-trifluoromethyl-phthalamic acid]"
990,943,"O=C(O)c1cc(Br)ccc1C(=O)Nc1ccc(Cl)cn1 [Example 20, 5-Bromo-N-(5-chloro-pyridin-2-yl)-phthalamic acid]"
700,667,"Cc1cc(NC(=O)c2ccc(C(F)(F)F)cc2C(=O)O)ccn1 [Example 9, N-(2-methyl-pyridin-4-yl)-5-trifluoromethyl-phthalamic acid]"
570,543,"Cc1ccc(NC(=O)c2ccc(Br)cc2C(=O)O)nc1C [Example 23, 5-Bromo-N-(5,6-dimethyl-pyridin-2-yl)-phthalamic acid]"
480,457,"Cc1nccc(NC(=O)c2cc(Cl)c(Cl)cc2C(=O)O)n1 [Example 13, 4,5-Dichloro-N-(2-methyl-pyrimidin-4-yl)-phthalamic acid]"
360,343,"O=C(O)c1cc(C(F)(F)F)ccc1C(=O)Nc1ncc(C(F)(F)F)cc1Cl [Example 16, 2-((3-chloro-5-(trifluoromethyl)pyridin-2-yl)carbamoyl)-5-(trifluoromethyl)benzoic acid]"
360,343,"Cc1ccnc(NC(=O)c2ccc(C(F)(F)F)cc2C(=O)O)n1 [Example 17, 2-((4-methylpyrimidin-2-yl)carbamoyl)-5-(trifluoromethyl)benzoic acid]"
